The text below walks through data of patent US12435038B2 (KUNMING SINOWAY NATURAL PHARMACEUTICALS CO., LTD., priority 2019, dated 2025).

The conditions of data set [1]: cited from earlier work.
Data set [2] in a line: Powder properties of amlodipine mesylate monohydrate crystals (particle size distribution, carr index, angle of repose, bulk density). The data set is classed as physicochemical. To be noted: API crystals. The source says:
The Carr index and angle of repose are indications of the flowability of a powdery material. To a certain extent, the Carr index is an indication of the compressibility of a powdery material. Carr index=(tap density-bulk density)/tap density*100%.
The angle of repose (α) refers to the maximum angle formed between the free inclined plane and the horizontal plane in a powder piled layer. The smaller the angle of repose (α) is, the better the flowability is. It is generally believed that the powder can flow freely if the a is less than 30°, and the flowability of the power is acceptable if the a is between 30° and 40°, while the power may have poor flowability if the a is greater than 40°.
The particle size of crystals can be measured by a Malvern Lazer Particle Analyzer which is a dry method. The particle size is related to the fluidity of a powder, and generally the larger the particle size is and the more concentrated the particle distribution is, the better the fluidity is. During the crystallization process, an average particle size (D50) of less than 15 μm may lead to difficulty in filtration and drying and easy to carry and absorb more impurities. Furthermore, the uniformity of particle size distribution can also have an impact on the properties of APIs.
(§1) Determination of other parameters of API or tablets of amlodipine mesylate monohydrate regarding quality such as water content, angle of repose, carr index, particle size, bulk density, and the like, is conduct with conventional methods well known to those skilled in the art.

Data set [3] in a line: Accelerated test of the API (sealed in aluminum-plastic composite film bags, 40° C., 75% RH). To be noted: mesylate monohydrate. The data set is classed as physicochemical.
From the text: as §1

For the molecule `CCOC(=O)C1=C(COCCN)NC(C)=C(C(=O)OC)C1c1ccccc1Cl` (stereo not shown) [Amlodipine free base, Amlodipine], the “water solubility” value in data set [1] is “poor water solubility”.

With amlodipine mesylate monohydrate, the “water solubility” value in data set [1] is on record as “easily soluble in water”. In data set [1] (in water), the “solubility relative to that of amlodipine besylate” value is given as “more than 10 time”.

Regarding “amlodipine mesylate monohydrate [Comparative Example 1, reference compound]”, in data set [2], the Bulk density is listed as 0.22 g/mL; the Carr index is 41%; the angle of repose was found to be 46 °; the “fluidity (words, from carr index and angle of repose)” value is given as “poor fluidity”. Further, in data set [2], the “particle size distribution D10” value came to 1.73 μm, the “particle size distribution D50” value is 6.70 μm and the “particle size distribution D90” value stood at 16.4 μm. In data set [3] (0 month), the Average particle size is 6.70 μm, the Bulk density turned out to be 0.22 g/mL, the Carr index stood at 41% and the Character entry is reported as “White like”. Further, in data set [3] (0 month), the Content came out at 99.89%, the Related substance is 0.12% and the Water content stood at 3.49%. Moreover, in data set [3] (3 months), the Average particle size is reported as 5.96 μm, the Bulk density worked out at 0.25 g/mL, the Carr index is reported as 42% and the Content came to 99.81%. In data set [3] (3 months), this molecule showed a Related substance of 0.18% and a Water content of 3.48%. For the same molecule, in data set [3] (6 months), the Average particle size worked out at 6.93 μm, the Bulk density came to 0.26 g/mL, the Carr index came to 43% and the Character entry is recorded as “Yellow”. In data set [3] (6 months), this molecule showed a Content of 99.71%, a Related substance of 0.23% and a Water content of 3.51%.

For “amlodipine mesylate monohydrate [Comparative Example 2, reference compound]”, in data set [2], the Bulk density was found to be 0.26 g/mL; the Carr index stood at 42%; the angle of repose is reported as 45 °; the “fluidity (words, from carr index and angle of repose)” value is listed as “poor fluidity”. Further, in data set [2], the “particle size distribution D10” value turned out to be 1.62 μm, the “particle size distribution D50” value came to 6.22 μm and the “particle size distribution D90” value was 14.1 μm. In addition, in data set [3] (0 month), the Average particle size is reported as 6.22 μm, the Bulk density is recorded as 0.26 g/mL, the Carr index is given as 42% and the Character result is listed as “White like”. Moreover, in data set [3] (0 month), the Content is listed as 99.82%, the Related substance is recorded as 0.11% and the Water content was 3.57%. Besides, in data set [3] (3 months), the Average particle size came out at 5.89 μm, the Bulk density was 0.27 g/mL, the Carr index turned out to be 41% and the Character entry is listed as “Light yellow”. In data set [3] (3 months), the Content is on record as 99.71%, the Related substance turned out to be 0.18% and the Water content turned out to be 3.52%. In data set [3] (6 months), the Average particle size amounted to 6.74 μm, the Bulk density is 0.25 g/mL, the Carr index came to 44% and the Character entry is “Yellow solid”. Besides, in data set [3] (6 months), the Content is recorded as 99.62%, the Related substance came out at 0.26% and the Water content is recorded as 3.53%.

“amlodipine mesylate monohydrate [Example 1]”: in data set [2], the Bulk density is listed as 0.32 g/mL; the Carr index is reported as 23%; the angle of repose was determined as 29 °; the “fluidity (words, from carr index and angle of repose)” value is given as “good fluidity”. In addition, in data set [2], the “particle size distribution D10” value is listed as 33.9 μm, the “particle size distribution D50” value amounted to 70.2 μm and the “particle size distribution D90” value was 121 μm. Also, in data set [3] (0 month), the Average particle size is recorded as 70.2 μm, the Bulk density amounted to 0.32 g/mL, the Carr index came out at 23% and the Character result was “White solid”. Besides, in data set [3] (0 month), the Content is recorded as 99.92%, the Related substance amounted to 0.07% and the Water content was determined as 3.51%. For the same molecule, in data set [3] (3 months), the Average particle size came out at 70.6 μm, the Bulk density is 0.31 g/mL, the Carr index was 23% and the Character entry is recorded as “White solid”. In data set [3] (3 months), the Content is on record as 99.78%, the Related substance came to 0.07% and the Water content is reported as 3.49%. For the same molecule, in data set [3] (6 months), the Average particle size came to 69.5 μm, the Bulk density was found to be 0.33 g/mL, the Carr index turned out to be 24% and the Character entry is recorded as “White solid”. In data set [3] (6 months), the Content is given as 99.71%, the Related substance worked out at 0.08% and the Water content amounted to 3.50%.

Regarding “amlodipine mesylate monohydrate [Example 2]”, in data set [2], the Bulk density stood at 0.33 g/mL; the Carr index worked out at 23%; the angle of repose is given as 31 °; the “fluidity (words, from carr index and angle of repose)” value is listed as “good fluidity”. Also, in data set [2], the “particle size distribution D10” value stood at 34.8 μm, the “particle size distribution D50” value is recorded as 72.1 μm and the “particle size distribution D90” value is given as 126 μm. Also, in data set [3] (0 month), the Average particle size came out at 72.1 μm, the Bulk density worked out at 0.33 g/mL, the Carr index is listed as 23% and the Character entry is reported as “White solid”. In data set [3] (0 month), this molecule yielded a Content of 99.95%, a Related substance of 0.06% and a Water content of 3.51%. In data set [3] (3 months), the Average particle size was 71.8 μm, the Bulk density was 0.32 g/mL, the Carr index was found to be 24% and the Character result was “White solid”. In data set [3] (3 months), this molecule registered a Content of 99.81%, a Related substance of 0.07% and a Water content of 3.52%. Moreover, in data set [3] (6 months), the Average particle size turned out to be 72.4 μm, the Bulk density was 0.32 g/mL, the Carr index was found to be 24% and the Character result is listed as “White solid”. In data set [3] (6 months), this molecule returned a Content of 99.73%, a Related substance of 0.08% and a Water content of 3.49%.

For “amlodipine mesylate monohydrate [Example 3]”, in data set [2], the Bulk density came out at 0.30 g/mL; the Carr index came to 24%; the angle of repose is 33 °; the “fluidity (words, from carr index and angle of repose)” value is reported as “good fluidity”. Also, in data set [2], the “particle size distribution D10” value was 32.9 μm, the “particle size distribution D50” value amounted to 70.1 μm and the “particle size distribution D90” value amounted to 124 μm. Further, in data set [3] (0 month), the Average particle size was found to be 70.1 μm, the Bulk density was 0.30 g/mL, the Carr index is 24% and the Character entry is given as “White solid”. For the same molecule, in data set [3] (0 month), the Content stood at 99.93%, the Related substance stood at 0.07% and the Water content is recorded as 3.50%. Also, in data set [3] (3 months), the Average particle size was determined as 69.5 μm, the Bulk density amounted to 0.31 g/mL, the Carr index was 23% and the Character entry was “White solid”. Besides, in data set [3] (3 months), the Content turned out to be 99.82%, the Related substance was 0.08% and the Water content was 3.48%. In data set [3] (6 months), the Average particle size was found to be 71.4 μm, the Bulk density came to 0.32 g/mL, the Carr index is 25% and the Character result is given as “White solid”. In data set [3] (6 months), this molecule returned a Content of 99.71%, a Related substance of 0.10% and a Water content of 3.49%.

Consider “amlodipine mesylate monohydrate [Experimental Example 1]”, for which, in data set [2], the “particle size distribution D10” value is listed as 43 μm, the “particle size distribution D50” value is given as 92 μm and the “particle size distribution D90” value worked out at 151 μm.

For “amlodipine mesylate monohydrate [Experimental Example 2]”, in data set [2], the “particle size distribution D10” value was 32 μm, the “particle size distribution D50” value is 68 μm and the “particle size distribution D90” value turned out to be 117 μm.

Consider “amlodipine mesylate monohydrate [Experimental Example 3]”, for which, in data set [2], the “particle size distribution D10” value came out at 34 μm, the “particle size distribution D50” value is given as 69 μm and the “particle size distribution D90” value came out at 120 μm.
